What was measured:
Schistosoma japonicum [1] = test: Antischistosomal activity against Schistosoma japonicum assessed as worm mortality at 10 ug/ml incubated for 72 hrs by microscopic method relative to control; type: functional; details: dose 10 µg/ml
Schistosoma mansoni [2] = test: Antischistosomal activity against adult Schistosoma mansoni measured after 72 hrs by microscopic method; type: functional, organism-based
L6 = test: Cytotoxicity against rat L6 cells measured after 72 hrs by alamar blue assay; type: functional, cell-based; details: L6, 72 h
Schistosoma haematobium [3] = test: Antischistosomal activity against adult Schistosoma haematobium assessed as reduction in worm viability at 100 uM measured after 48 hrs by microscopic method relative to control; type: functional
Schistosoma mansoni [4] = test: Antischistosomal activity against Schistosoma mansoni infected in NMRI mouse assessed as worm burden reduction at 100 mg/kg, po administered as single dose relative to control; type: functional; design: scale not given: the % may be the effect or the level left
Schistosoma haematobium [5] = test: Antischistosomal activity against adult Schistosoma haematobium assessed as reduction in worm viability at 100 uM measured after 4 hrs by microscopic method relative to control; type: functional
Histone deacetylase 8 [6] = target: T1, Histone deacetylase 8 (Schistosoma mansoni, UniProt A5H660); test: Inhibition of Schistosoma mansoni HDAC8 expressed in Escherichia coli using Fluor de Lys as substrate incubated for 90 mins by fluorescence method
T1 sequence (A5H660 whole entry): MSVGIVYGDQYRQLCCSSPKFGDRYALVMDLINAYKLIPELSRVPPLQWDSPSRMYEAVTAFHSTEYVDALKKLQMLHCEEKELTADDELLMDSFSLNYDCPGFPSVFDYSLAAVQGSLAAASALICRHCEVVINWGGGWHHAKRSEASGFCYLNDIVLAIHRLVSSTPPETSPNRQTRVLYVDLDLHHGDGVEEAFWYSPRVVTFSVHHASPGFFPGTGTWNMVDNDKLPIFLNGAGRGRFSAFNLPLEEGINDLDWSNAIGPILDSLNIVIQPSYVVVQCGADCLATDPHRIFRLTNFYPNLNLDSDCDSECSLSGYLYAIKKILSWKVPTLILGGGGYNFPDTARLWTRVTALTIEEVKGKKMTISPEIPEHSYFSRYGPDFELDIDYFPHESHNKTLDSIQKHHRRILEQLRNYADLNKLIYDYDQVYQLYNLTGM

Histone deacetylase 8 [7] = target: T2, Histone deacetylase 8 (Homo sapiens, UniProt Q9BY41); test: Inhibition of human HDAC8 using Fluor de Lys as substrate incubated for 90 mins by fluorescence method
T2 sequence (Q9BY41 whole entry): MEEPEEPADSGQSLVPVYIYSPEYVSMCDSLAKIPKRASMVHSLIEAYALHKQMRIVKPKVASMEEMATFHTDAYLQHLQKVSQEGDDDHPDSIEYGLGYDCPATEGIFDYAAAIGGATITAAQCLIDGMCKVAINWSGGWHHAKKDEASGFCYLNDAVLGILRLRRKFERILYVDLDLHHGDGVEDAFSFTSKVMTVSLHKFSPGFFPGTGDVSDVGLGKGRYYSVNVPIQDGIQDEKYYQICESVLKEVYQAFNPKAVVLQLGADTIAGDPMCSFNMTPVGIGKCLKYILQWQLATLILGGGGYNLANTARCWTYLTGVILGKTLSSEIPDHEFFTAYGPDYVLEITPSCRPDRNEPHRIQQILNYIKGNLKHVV

Schistosoma mansoni [8] = test: Schistosomicidal-activity against Schistosoma mansoni schistosomula at 20 uM incubated for 48 hrs by Alamar Blue assay relative to control; type: functional
[9] = target: T3, Protein deacetylase HDAC6 (Homo sapiens, UniProt Q9UBN7); test: Inhibition of human HDAC6 using ZMAL(Cbz-(Ac)Lys-AMC as substrate preincubated for 90 mins followed by trypsin addition and measured after 20 mins by fluorimetric method
T3 sequence (Q9UBN7 whole entry): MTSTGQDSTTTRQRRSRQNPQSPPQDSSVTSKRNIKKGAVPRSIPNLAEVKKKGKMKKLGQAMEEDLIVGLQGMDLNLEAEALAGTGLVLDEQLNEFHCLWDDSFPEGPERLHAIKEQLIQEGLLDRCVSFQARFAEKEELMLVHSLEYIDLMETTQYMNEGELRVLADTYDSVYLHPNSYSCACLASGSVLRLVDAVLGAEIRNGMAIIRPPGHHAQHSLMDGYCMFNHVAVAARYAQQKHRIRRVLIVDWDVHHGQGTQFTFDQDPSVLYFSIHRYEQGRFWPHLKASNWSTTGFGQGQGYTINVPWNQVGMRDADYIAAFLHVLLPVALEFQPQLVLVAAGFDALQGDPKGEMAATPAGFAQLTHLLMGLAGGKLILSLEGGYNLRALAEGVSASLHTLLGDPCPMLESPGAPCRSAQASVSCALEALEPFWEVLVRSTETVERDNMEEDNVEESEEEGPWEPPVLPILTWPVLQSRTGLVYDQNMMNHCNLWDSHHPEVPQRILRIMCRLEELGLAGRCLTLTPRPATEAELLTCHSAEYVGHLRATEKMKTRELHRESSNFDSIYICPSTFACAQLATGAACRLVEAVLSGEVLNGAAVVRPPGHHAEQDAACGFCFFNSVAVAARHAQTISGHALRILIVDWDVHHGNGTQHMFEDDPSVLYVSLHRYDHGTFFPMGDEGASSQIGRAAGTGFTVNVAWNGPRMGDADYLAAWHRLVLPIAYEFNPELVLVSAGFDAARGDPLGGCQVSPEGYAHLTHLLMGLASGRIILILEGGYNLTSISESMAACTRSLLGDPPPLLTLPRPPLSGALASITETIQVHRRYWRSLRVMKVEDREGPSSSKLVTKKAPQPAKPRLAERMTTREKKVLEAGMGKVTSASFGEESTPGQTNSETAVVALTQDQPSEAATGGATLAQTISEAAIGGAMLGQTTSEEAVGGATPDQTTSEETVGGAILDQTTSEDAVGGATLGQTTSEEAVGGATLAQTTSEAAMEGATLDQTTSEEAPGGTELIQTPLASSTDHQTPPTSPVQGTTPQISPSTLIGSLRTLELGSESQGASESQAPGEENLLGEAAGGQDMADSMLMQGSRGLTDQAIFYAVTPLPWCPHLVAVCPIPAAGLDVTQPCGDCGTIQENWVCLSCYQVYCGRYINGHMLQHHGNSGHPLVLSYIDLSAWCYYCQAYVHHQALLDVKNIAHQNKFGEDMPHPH

Schistosoma mansoni [10] = test: Schistosomicidal-activity against Schistosoma mansoni schistosomula incubated for 48 hrs by Alamar Blue assay; type: functional, organism-based
Histone deacetylase 1 = Histone deacetylase 1 (Homo sapiens, UniProt Q13547); test: Inhibition of human HDAC1 (1 to 482 reidue) expressed in sf9 cells using ZMAL(Cbz-(Ac)Lys-AMC as substrate preincubated for 90 mins followed by trypsin addition and measured after 20 mins by fluorimetric method
Schistosoma japonicum [11] = test: Antischistosomal activity against adult Schistosoma japonicum assessed as reduction in worm vitality at >10 uM incubated for 48 hrs relative to control; type: functional; design: scale not given: the % may be the effect or the level left; details: dose microM >10
Schistosoma japonicum [12] = test: Antischistosomal activity against juvenile Schistosoma japonicum assessed as reduction in worm vitality at 25 uM incubated for 72 hrs relative to control; type: functional; design: scale not given: the % may be the effect or the level left
Schistosoma japonicum [13] = test: Antischistosomal activity against Schistosoma japonicum infected in ICR mouse assessed as total worm reduction at 250 mg/kg, po administered as single dose relative to control; type: functional; design: scale not given: the % may be the effect or the level left
Schistosoma mansoni [14] = test: Antischistosomal activity against male Schistosoma mansoni assessed as worm killing effect at 100 uM measured after 24 hrs by phase-contrast microscopy relative to control; type: functional
Schistosoma mansoni [15] = test: Potentiation of praziquantel-induced antischistosomal activity against Schistosoma mansoni infected in Swiss albino mouse assessed as worm burden at 20 mg/kg, po administered for 5 days (reference value: 60%); type: functional; details: time 5 day
Schistosoma mansoni [16] = test: Antischistosomal activity against Schistosoma mansoni infected in Swiss albino mouse assessed as reduction in worm burden at 20 mg/kg, po administered for 5 days relative to control; type: functional; design: scale not given: the % may be the effect or the level left; details: time 5 day
Schistosoma mansoni [17] = test: Potentiation of praziquantel-induced antischistosomal activity against Schistosoma mansoni infected in Swiss albino mouse assessed as intestinal egg burden at 20 mg/kg, po administered for 5 days (reference value: 67%); type: functional; details: time 5 day
Schistosoma mansoni [18] = test: Antischistosomal activity against Schistosoma mansoni infected in Swiss albino mouse assessed as reduction in intestinal tissue egg burden at 20 mg/kg, po administered for 5 days relative to control; type: functional; design: scale not given: the % may be the effect or the level left; details: time 5 day
Schistosoma japonicum [19] = test: Antischistosomal activity against Schistosoma japonicum at 10 uM incubated for 72 hrs by inverted microscopic method relative to control; type: functional
Histone deacetylase 8 [20] = target: T2, Histone deacetylase 8; test: Inhibition of human HDAC8 using Fluor de Lys as substrate by fluorimetric method
[21] = target: T4, HDAC1 (histone deacetylase 1) (Homo sapiens, UniProt Q13547); test: Inhibition of human HDAC1 using Z-Lys(Ac)-AMC as substrate at 1 uM by fluorimetric method relative to control; details: HDAC1 enzyme, probe Z-Lys(Ac)-AMC
[22] = target: T3, Protein deacetylase HDAC6; test: Inhibition of human HDAC6 using Z-Lys(Ac)-AMC as substrate by fluorimetric method
[23] = target: T4, HDAC1 (histone deacetylase 1); test: Inhibition of human HDAC1 at 200 uM using Z-Lys(Ac)-AMC as substrate by fluorimetric method relative to control; details: HDAC1 enzyme, probe Z-Lys(Ac)-AMC
Histone deacetylase 8 [24] = target: T1, Histone deacetylase 8; test: Inhibition of Schistosoma mansoni HDAC8 using fluorogenic substrate by fluorescence method
Schistosoma mansoni [25] = test: Antischistosomal activity against Schistosoma mansoni Liberian infected in NMRI mouse assessed as worm burden reduction at 100 mg/kg, po measured after 14 days relative to control; type: functional; design: scale not given: the % may be the effect or the level left; details: time 14 day
Schistosoma haematobium [26] = test: Antischistosomal activity against Schistosoma haematobium Egyptian infected in NMRI mouse assessed as worm burden reduction at 200 mg/kg, po measured after 14 days; type: functional; design: scale not given: the % may be the effect or the level left; details: time 14 day
Schistosoma mansoni [27] = test: Schistosomicidal-activity against adult Schistosoma mansoni incubated overnight followed by replacement of medium and measured on day 5 by stereomicroscopy; type: functional, organism-based; details: 120 h
Schistosoma mansoni [28] = test: Antischistosomal activity against Schistosoma mansoni NTS incubated for 72 hrs by microscopic method; type: functional, organism-based
Schistosoma mansoni [29] = test: Antischistosomal activity against adult Schistosoma mansoni incubated for 72 hrs by microscopic method; type: functional, organism-based

T4 sequence (Q13547 whole entry): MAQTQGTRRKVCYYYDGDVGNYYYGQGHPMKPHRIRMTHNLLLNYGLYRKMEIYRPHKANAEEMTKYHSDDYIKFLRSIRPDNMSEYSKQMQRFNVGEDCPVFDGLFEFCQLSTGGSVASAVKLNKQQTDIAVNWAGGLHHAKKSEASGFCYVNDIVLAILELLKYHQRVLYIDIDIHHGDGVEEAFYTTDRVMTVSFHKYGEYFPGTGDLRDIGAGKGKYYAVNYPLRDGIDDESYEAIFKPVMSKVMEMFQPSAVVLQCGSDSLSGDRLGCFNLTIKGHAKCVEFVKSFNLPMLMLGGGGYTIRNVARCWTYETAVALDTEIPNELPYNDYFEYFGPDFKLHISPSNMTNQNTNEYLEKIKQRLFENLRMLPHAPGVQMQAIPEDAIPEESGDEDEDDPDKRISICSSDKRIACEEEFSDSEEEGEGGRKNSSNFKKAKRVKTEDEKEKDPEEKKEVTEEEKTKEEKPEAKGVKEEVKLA
Chain of Histone deacetylase 1 (Q13547 whole entry): as above

Structure (SMILES): OC(CN1CCCCC1)Cn1c2ccc(Cl)cc2c2cc(Cl)ccc21 (stereo unspecified)
- Activity (Schistosoma japonicum [1]): 100%

Structure (SMILES): CC(C)N(Cc1ccccc1)CC1CCc2cc(CCl)c([N+](=O)[O-])cc2N1 (stereo unspecified)
- IC50 (Schistosoma mansoni [2]): 11100 nM
- IC50 (L6): > 73000 nM
- Activity (Schistosoma haematobium [3]): 100%
- Activity (Schistosoma mansoni [4]): 76.1%
- Activity (Schistosoma haematobium [5]): 75%

Structure (SMILES): O=C(/C=C/c1ccccc1Sc1ccc(Cl)cc1)NO
- IC50 (Histone deacetylase 8 [6]): 180 nM
- IC50 (Histone deacetylase 8 [7]): 180 nM
- Activity (Schistosoma mansoni [8]): 97%
- IC50 [9]: 3200 nM
- EC50 (Schistosoma mansoni [10]): 11800 nM
- IC50 (Histone deacetylase 1): 7700 nM

Structure (SMILES): O=C(C1CCCCC1)N1CC(=O)N2CCc3c(Br)cccc3C2C1 (stereo unspecified)
- Activity (Schistosoma japonicum [11]): 100%
- Activity (Schistosoma japonicum [12]): <10%
- Activity (Schistosoma japonicum [13]): 54.3%

Structure (SMILES): COc1ccc(-c2nc(-c3ccccc3OC)[nH]c2-c2ccc(OC)cc2)cc1
- Activity (Schistosoma mansoni [14]): 33%
- Activity (Schistosoma mansoni [15]): 88%
- Activity (Schistosoma mansoni [16]): <17%
- Activity (Schistosoma mansoni [17]): 83%
- Activity (Schistosoma mansoni [18]): <17%

Structure (SMILES): CCCCCCCCCCOc1cc2c(O)c(C(=O)NCCN(CC)CC)cnc2cc1OCC
- Activity (Schistosoma japonicum [19]): 100%

Structure (SMILES): CN1CCN(NC(=O)c2cccc(C(=O)NO)c2)CC1
- IC50 (Histone deacetylase 8 [20]): 1310 nM
- inhibition at 1 µM [21]: < 10%
- IC50 [22]: 7110 nM
- inhibition at 200 µM [23]: 15.3%
- IC50 (Histone deacetylase 8 [24]): 750 nM

Structure (SMILES): OC(c1cc(-c2ccccc2)nc2c(Cl)cc(Cl)cc12)C1CCCCN1 (stereo unspecified)
- Activity (Schistosoma mansoni [25]): 87%
- Activity (Schistosoma haematobium [26]): 100%

Structure (SMILES): O=C(C1CCCCC1)N1CC(=O)N2CCc3sccc3C2C1 (stereo unspecified)
- EC50 (Schistosoma mansoni [27]): 900 nM

Structure (SMILES): O=C(NO)c1cccc(C(=O)NOCc2ccc(Cl)cc2Cl)c1
- IC50 (Histone deacetylase 8 [20]): 630 nM
- inhibition at 1 µM [21]: < 10%
- IC50 [22]: 5120 nM
- inhibition at 200 µM [23]: 47.5%
- IC50 (Histone deacetylase 8 [24]): 400 nM

Structure (SMILES): O=C(Nc1cc(C(F)(F)F)ccc1Cl)c1ccccc1O
- IC50 (Schistosoma mansoni [28]): 200 nM
- IC50 (Schistosoma mansoni [29]): 600 nM

Source: ChEMBL document CHEMBL4811216, “Chemotherapy for human schistosomiasis: how far have we come? What's new? Where do we go from here?” (RSC Med Chem, 2020)
